In brackets after ≈: the same amount, converted by molar mass.
Assays:
Assay type in all cases: cell-based
[1] = tested on: Staphylococcus aureus FDA 209PJc-1; experiment: Antibacterial activity, agar-dilution MIC, organism No. 1; settings: Staphylococcus aureus, FDA209PJC1; Organism No. 1, bouillon-agar; read-out: Minimum Inhibitory Concentration
Text: (§1) Agar-dilution method was used for determination of the antibacterial activity and antifungal activity while using bouillon-agar culture medium, and the minimum inhibitory concentration of the specimen was expressed by μg/ml of the culture medium.

[2] = tested on: Staphylococcus aureus Terajima; experiment: Antibacterial activity, agar-dilution MIC, organism No. 2; settings: Staphylococcus aureus; Organism No. 2, bouillon-agar; read-out: Minimum Inhibitory Concentration
Text: as §1

[3] = tested on: Staphylococcus aureus MS 353; experiment: Antibacterial activity, agar-dilution MIC, organism No. 3; settings: Staphylococcus aureus, MS353; Organism No. 3, bouillon-agar; read-out: Minimum Inhibitory Concentration
Text: as §1

[4] = tested on: Streptococcus pyogenes Cook; experiment: Antibacterial activity, agar-dilution MIC, organism No. 4; settings: Streptococcus pyogenes; Organism No. 4, bouillon-agar; read-out: Minimum Inhibitory Concentration
Text: as §1

[5] = tested on: Escherichia coli NIHJ-JC-2; experiment: Antibacterial activity, agar-dilution MIC, organism No. 5; settings: Escherichia coli, NIHJJC2; Organism No. 5, bouillon-agar; read-out: Minimum Inhibitory Concentration
Text: as §1

[6] = tested on: Escherichia coli K12 C600 IAM 1264; experiment: Antibacterial activity, agar-dilution MIC, organism No. 6; settings: Escherichia coli, IAM1264; Organism No. 6, bouillon-agar; read-out: Minimum Inhibitory Concentration
Text: as §1

[7] = tested on: Klebsiella pneumoniae PCI-602; experiment: Antibacterial activity, agar-dilution MIC, organism No. 7; settings: Klebsiella pneumoniae, PCI602; Organism No. 7, bouillon-agar; read-out: Minimum Inhibitory Concentration
Text: as §1

[8] = tested on: Salmonella typhimurium IID 971; experiment: Antibacterial activity, agar-dilution MIC, organism No. 8; settings: Salmonella enterica; Organism No. 8, bouillon-agar; read-out: Minimum Inhibitory Concentration
Text: as §1

Salmonella typhi 901 = experiment: Antibacterial activity, agar-dilution MIC, organism No. 9; settings: Salmonella enterica, TYPHI, read-out: Minimum Inhibitory Concentration
Text: as §1

[9] = tested on: Salmonella paratyphi-A 1015; experiment: Antibacterial activity, agar-dilution MIC, organism No. 10; settings: Salmonella enterica, PARATYPHI, read-out: Minimum Inhibitory Concentration
Text: as §1

[10] = tested on: Salmonella shottmuelleri 8006; experiment: Antibacterial activity, agar-dilution MIC, organism No. 11; settings: Salmonella, 8006; Organism No. 11, bouillon-agar; read-out: Minimum Inhibitory Concentration
Text: as §1

[11] = tested on: Salmonella enteritidis G 14; experiment: Antibacterial activity, agar-dilution MIC, organism No. 12; settings: Salmonella enterica, ENTERITIDIS; Organism No. 12, bouillon-agar; read-out: Minimum Inhibitory Concentration
Text: as §1

[12] = tested on: Bacillus subtilis ATCC 6633; experiment: Antibacterial activity, agar-dilution MIC, organism No. 14; settings: Bacillus subtilis, ATCC6633; Organism No. 14, bouillon-agar; read-out: Minimum Inhibitory Concentration
Text: as §1

[13] = tested on: Pseudomonas aeruginosa IFO 3445; experiment: Antibacterial activity, agar-dilution MIC, organism No. 15; settings: Pseudomonas aeruginosa, IFO3445; Organism No. 15, bouillon-agar; read-out: Minimum Inhibitory Concentration
Text: as §1

[14] = tested on: Pseudomonas aeruginosa NCTC 10490; experiment: Antibacterial activity, agar-dilution MIC, organism No. 16; settings: Pseudomonas aeruginosa, NCTC10490; Organism No. 16, bouillon-agar; read-out: Minimum Inhibitory Concentration
Text: as §1

[15] = tested on: Pseudomonas aeruginosa PAO 1; experiment: Antibacterial activity, agar-dilution MIC, organism No. 17; settings: Pseudomonas aeruginosa, PAO1; Organism No. 17, bouillon-agar; read-out: Minimum Inhibitory Concentration
Text: as §1

[16] = tested on: Proteus morganii IFO 3848; experiment: Antibacterial activity, agar-dilution MIC, organism No. 18; settings: Morganella morganii, IFO3848; Organism No. 18, bouillon-agar; read-out: Minimum Inhibitory Concentration
Text: as §1

[17] = tested on: Proteus mirabilis IFO 3849; experiment: Antibacterial activity, agar-dilution MIC, organism No. 19; settings: Proteus mirabilis, IFO3849; Organism No. 19, bouillon-agar; read-out: Minimum Inhibitory Concentration
Text: as §1

Proteus vulgaris OX-19 = experiment: Antibacterial activity, agar-dilution MIC, organism No. 20; settings: Proteus vulgaris, OX19; Organism No. 20, bouillon-agar; read-out: Minimum Inhibitory Concentration
Text: as §1

Proteus vulgaris HX-19 = experiment: Antibacterial activity, agar-dilution MIC, organism No. 21; settings: Proteus vulgaris, HX19; Organism No. 21, bouillon-agar; read-out: Minimum Inhibitory Concentration
Text: as §1

[18] = tested on: Proteus rettgeri IFO 3850; experiment: Antibacterial activity, agar-dilution MIC, organism No. 22; settings: Providencia rettgeri, IFO3850; Organism No. 22, bouillon-agar; read-out: Minimum Inhibitory Concentration
Text: as §1

[19] = tested on: Enterobacter aerogenes ATCC 13048; experiment: Antibacterial activity, agar-dilution MIC, organism No. 23; settings: Klebsiella aerogenes, ATCC13048; Organism No. 23, bouillon-agar; read-out: Minimum Inhibitory Concentration
Text: as §1

Enterobacter cloacae 963 = experiment: Antibacterial activity, agar-dilution MIC, organism No. 24; settings: Enterobacter cloacae, 963; Organism No. 24, bouillon-agar; read-out: Minimum Inhibitory Concentration
Text: as §1

[20] = tested on: Micrococcus luteus ATCC 9341; experiment: Antibacterial activity, agar-dilution MIC, organism No. 25; settings: Micrococcus luteus, ATCC9341; Organism No. 25, bouillon-agar; read-out: Minimum Inhibitory Concentration
Text: as §1

[21] = tested on: Streptococcus pyogenes IFO 3340; experiment: Antibacterial activity, agar-dilution MIC, organism No. 26; settings: Streptococcus pyogenes, IFO3340; Organism No. 26, bouillon-agar; read-out: Minimum Inhibitory Concentration
Text: as §1

[22] = tested on: Streptococcus faecium IFO 3826; experiment: Antibacterial activity, agar-dilution MIC, organism No. 27; settings: Enterococcus faecium, IFO3826; Organism No. 27, bouillon-agar; read-out: Minimum Inhibitory Concentration
Text: as §1

[23] = tested on: Mycoplasma pneumoniae IID817; experiment: Antimycoplasmal activity, MIC by phenol red colour change, organism No. 28; settings: Mycoplasma, IID817; Organism No. 28, PPLO broth + 1% glucose, 37° C.; read-out: Minimum Inhibitory Concentration (MIC)
Experimental: Mycoplasma pneumoniae IID817 was used as the test microorganism in a culture medium prepared by adding 1% of glucose to "PPLO broth (manufactured by Difco Co.) liquid culture medium" at 37° C. with phenol red as an indicator, thereby culturing the test microorganism.

[24] = tested on: Candida albicans IAM 4905; experiment: Antifungal activity, agar-dilution MIC, organism No. 29; settings: Candida albicans, IAM4905; Organism No. 29, bouillon-agar; read-out: Minimum Inhibitory Concentration
Text: as §1

[25] = tested on: Aspergillus niger IFO 6342; experiment: Antifungal activity, agar-dilution MIC, organism No. 30; settings: Aspergillus niger, IFO6342; Organism No. 30, bouillon-agar; read-out: Minimum Inhibitory Concentration
Text: as §1

[C-]#[N+]C12CC3(/C=C/C(=O)NC4C(=O)N5C4SC(C)(C)C5C(=O)OCC(=O)c4ccc(Br)cc4)OC3C1O2 (centres unmarked) [Compound No. 33]
MIC [1]: 1.56 µg/mL (≈ 2.65 µM)
MIC [2]: 0.78 µg/mL (≈ 1.33 µM)
MIC [3]: 1.56 µg/mL (≈ 2.65 µM)
MIC [4]: 0.78 µg/mL (≈ 1.33 µM)
MIC [5]: 25 µg/mL (≈ 42.5 µM)
MIC [6]: 25 µg/mL (≈ 42.5 µM)
MIC [7]: 25 µg/mL (≈ 42.5 µM)
MIC [8]: 12.5 µg/mL (≈ 21.2 µM)
MIC (Salmonella typhi 901): 3.13 µg/mL (≈ 5.32 µM)
MIC [9]: 0.38 µg/mL (≈ 0.646 µM)
MIC [10]: 0.38 µg/mL (≈ 0.646 µM)
MIC [11]: 1.56 µg/mL (≈ 2.65 µM)
MIC [12]: 0.78 µg/mL (≈ 1.33 µM)
MIC [13]: > 200 µg/mL
MIC [14]: > 200 µg/mL
MIC [15]: > 200 µg/mL
MIC [16]: > 200 µg/mL
MIC [17]: > 200 µg/mL
MIC (Proteus vulgaris OX-19): 100 µg/mL (≈ 170 µM)
MIC (Proteus vulgaris HX-19): 1.56 µg/mL (≈ 2.65 µM)
MIC [18]: > 100 µg/mL
MIC [19]: > 100 µg/mL
MIC (Enterobacter cloacae 963): 25 µg/mL (≈ 42.5 µM)
MIC [20]: 3.13 µg/mL (≈ 5.32 µM)
MIC [21]: 0.8 µg/mL (≈ 1.36 µM)
MIC [22]: 0.8 µg/mL (≈ 1.36 µM)
MIC [23]: < 0.2 µg/mL
MIC [24]: 1.56 µg/mL (≈ 2.65 µM)
MIC [25]: 3.13 µg/mL (≈ 5.32 µM)

[C-]#[N+]C12CC3(/C=C/C(=O)N[C@@H](C(=O)OCc4ccccc4)C(C)C)OC3C1O2 (some centres unmarked) [compound 30]
MIC [1]: > 200 µg/mL
MIC [2]: > 200 µg/mL
MIC [3]: > 200 µg/mL
MIC [4]: > 200 µg/mL
MIC [5]: > 200 µg/mL
MIC [6]: > 200 µg/mL
MIC [7]: > 200 µg/mL
MIC [8]: > 200 µg/mL
MIC (Salmonella typhi 901): > 200 µg/mL
MIC [9]: > 200 µg/mL
MIC [10]: > 200 µg/mL
MIC [11]: > 200 µg/mL
MIC [12]: > 200 µg/mL
MIC [13]: > 200 µg/mL
MIC [14]: > 200 µg/mL
MIC [15]: > 200 µg/mL
MIC [16]: > 200 µg/mL
MIC [17]: > 200 µg/mL
MIC (Proteus vulgaris OX-19): > 200 µg/mL
MIC (Proteus vulgaris HX-19): > 200 µg/mL
MIC [18]: > 200 µg/mL
MIC [19]: > 200 µg/mL
MIC (Enterobacter cloacae 963): > 200 µg/mL
MIC [20]: 1.56 µg/mL (≈ 4.08 µM)
MIC [21]: > 200 µg/mL
MIC [22]: > 200 µg/mL
MIC [23]: > 100 µg/mL
MIC [24]: > 100 µg/mL
MIC [25]: > 100 µg/mL

[C-]#[N+]C12CC3(/C=C/C(=O)N[C@@H](Cc4ccccc4)C(=O)OCc4ccccc4)OC3C1O2 (some centres unmarked) [compound 31]
MIC [1]: > 200 µg/mL
MIC [2]: > 200 µg/mL
MIC [3]: > 200 µg/mL
MIC [4]: > 200 µg/mL
MIC [5]: > 200 µg/mL
MIC [6]: > 200 µg/mL
MIC [7]: > 200 µg/mL
MIC [8]: > 200 µg/mL
MIC (Salmonella typhi 901): > 200 µg/mL
MIC [9]: > 200 µg/mL
MIC [10]: > 200 µg/mL
MIC [11]: > 200 µg/mL
MIC [12]: > 200 µg/mL
MIC [13]: > 200 µg/mL
MIC [14]: > 200 µg/mL
MIC [15]: > 200 µg/mL
MIC [16]: > 200 µg/mL
MIC [17]: > 200 µg/mL
MIC (Proteus vulgaris OX-19): > 200 µg/mL
MIC (Proteus vulgaris HX-19): > 200 µg/mL
MIC [18]: > 200 µg/mL
MIC [19]: > 200 µg/mL
MIC (Enterobacter cloacae 963): > 200 µg/mL
MIC [20]: 6.25 µg/mL (≈ 14.5 µM)
MIC [21]: > 200 µg/mL
MIC [22]: > 200 µg/mL
MIC [23]: > 100 µg/mL
MIC [24]: > 100 µg/mL
MIC [25]: > 100 µg/mL

[C-]#[N+]C12CC3(/C=C/C(=O)Nc4ccc(C)cc4)OC3C1O2 (centres unmarked) [compound 37]
MIC [1]: 0.39 µg/mL (≈ 1.38 µM)
MIC [2]: 1.56 µg/mL (≈ 5.53 µM)
MIC [3]: 0.39 µg/mL (≈ 1.38 µM)
MIC [4]: 12.5 µg/mL (≈ 44.3 µM)
MIC [5]: 25 µg/mL (≈ 88.6 µM)
MIC [6]: 25 µg/mL (≈ 88.6 µM)
MIC [7]: 0.1 µg/mL (≈ 0.354 µM)
MIC [8]: 6.25 µg/mL (≈ 22.1 µM)
MIC (Salmonella typhi 901): 1.56 µg/mL (≈ 5.53 µM)
MIC [9]: 0.2 µg/mL (≈ 0.708 µM)
MIC [10]: 0.2 µg/mL (≈ 0.708 µM)
MIC [11]: 1.56 µg/mL (≈ 5.53 µM)
MIC [12]: 6.25 µg/mL (≈ 22.1 µM)
MIC [13]: > 200 µg/mL
MIC [14]: > 200 µg/mL
MIC [15]: > 200 µg/mL
MIC [16]: 12.5 µg/mL (≈ 44.3 µM)
MIC [17]: 200 µg/mL (≈ 708 µM)
MIC (Proteus vulgaris OX-19): 0.2 µg/mL (≈ 0.708 µM)
MIC (Proteus vulgaris HX-19): < 0.05 µg/mL
MIC [18]: 3.13 µg/mL (≈ 11.1 µM)
MIC [19]: 100 µg/mL (≈ 354 µM)
MIC (Enterobacter cloacae 963): 50 µg/mL (≈ 177 µM)
MIC [20]: < 0.05 µg/mL
MIC [21]: 1.56 µg/mL (≈ 5.53 µM)
MIC [22]: 25 µg/mL (≈ 88.6 µM)
MIC [23]: 0.2 µg/mL
MIC [24]: 0.39 µg/mL (≈ 1.38 µM)
MIC [25]: 1.56 µg/mL (≈ 5.53 µM)

Reference: patent US4684664A, “Derivatives of β-(4-isocyano-1,2,3,4-diepoxycyclopentyl) acrylic acid” (Kureha Kagaku Kogyo Kabushiki Kaisha, priority 1984, dated 1987)
